From patent publication US12606541B2, “PPARg modulators and methods of use” (Eisai R&D Management Co., Ltd., priority 2020, dated 2026)

Molecular target: T1, His6-TEV-PPARγ-(234-505) (Homo sapiens, UniProt P37231)
T1 construct: The His6-TEV-PPARγ-(234-505) protein for assay was expressed and purified; TEV cleavage site (N); made in house
T1 sequence (P37231 234-505): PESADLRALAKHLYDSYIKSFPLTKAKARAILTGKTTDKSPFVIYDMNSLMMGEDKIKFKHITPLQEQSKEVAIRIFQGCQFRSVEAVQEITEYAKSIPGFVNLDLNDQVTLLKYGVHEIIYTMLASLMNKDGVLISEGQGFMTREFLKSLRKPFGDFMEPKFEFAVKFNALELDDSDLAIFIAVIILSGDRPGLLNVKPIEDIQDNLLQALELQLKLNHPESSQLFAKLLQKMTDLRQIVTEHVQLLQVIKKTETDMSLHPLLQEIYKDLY
Assay: TR-FRET Assay to Measure Co-R Peptide Recruitment to PPARγ
Assay type: biochemical
Conditions: Co-R peptide recruitment to PPARγ; read-out: TR-FRET AC50
Procedure, shortened: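 Corepressor recruitment is measured by adding terbium-labeled anti-His antibody and FITC SMRT-ID2 peptide, at 5 and 200 nM final, after a 20-minute room-temperature protein–compound incubation. After one further hour, signal is converted to percent response between DMSO and 500 nM T0070907 wells.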

Row | Structure (SMILES) | AC50 [µM]
1 | COc1cc(-c2cc(C(=O)N3CCC(C(=O)N[C@@H]4C[C@@H](C)Oc5ccccc54)CC3)n[nH]2)c(Cl)cn1 [1-[5-(5-chloro-2-methoxypyridin-4-yl)-1H-pyrazole-3-carbonyl]-N-[(2R,4R)-2-methyl-3,4-dihydro-2H-1-benzopyran-4-yl]piperidine-4-carboxamide] | > 1
2 | COc1cc(-c2cc(C(=O)N3CCC(C(=O)NCC4OCC4(C)C)CC3)n[nH]2)c(Cl)cn1 (stereo not drawn) [1-[5-(5-chloro-2-methoxypyridin-4-yl)-1H-pyrazole-3-carbonyl]-N-[(3,3-dimethyloxetan-2-yl)methyl]piperidine-4-carboxamide] | > 1
3 | COc1cc(-c2cc(C(=O)N3CCC(OCC(F)(F)F)(C(=O)NCc4cccc(Cl)c4)CC3)n[nH]2)c(Cl)cn1 [1-[5-(5-chloro-2-methoxypyridin-4-yl)-1H-pyrazole-3-carbonyl]-N-[(3-chlorophenyl)methyl]-4-(2,2,2-trifluoroethoxy)piperidine-4-carboxamide] | > 1
4 | COc1cc(-c2cc(C(=O)N3CCC(CO)(C(=O)NCc4cccc(Cl)c4)CC3)n[nH]2)c(Cl)cn1 [1-[5-(5-chloro-2-methoxypyridin-4-yl)-1H-pyrazole-3-carbonyl]-N-[(3-chlorophenyl)methyl]-4-(hydroxymethyl)piperidine-4-carboxamide] | > 1
5 | COCC1(C(=O)NCc2cccc(Cl)c2)CCN(C(=O)c2cc(-c3cc(OC)ncc3Cl)[nH]n2)CC1 [1-[5-(5-chloro-2-methoxypyridin-4-yl)-1H-pyrazole-3-carbonyl]-N-[(3-chlorophenyl)methyl]-4-(methoxymethyl)piperidine-4-carboxamide] | > 1
6 | COc1cc(-c2cc(C(=O)N3CCC(C#N)(C(=O)NCc4cccc(Cl)c4)CC3)n[nH]2)c(Cl)cn1 [1-[5-(5-chloro-2-methoxypyridin-4-yl)-1H-pyrazole-3-carbonyl]-N-[(3-chlorophenyl)methyl]-4-cyanopiperidine-4-carboxamide] | > 1
7 | COc1cc(-c2cc(C(=O)N3CCC(OC)(C(=O)NCc4cccc(Cl)c4)CC3)n[nH]2)c(Cl)cn1 [1-[5-(5-chloro-2-methoxypyridin-4-yl)-1H-pyrazole-3-carbonyl]-N-[(3-chlorophenyl)methyl]-4-methoxypiperidine-4-carboxamide] | > 1
8 | CCC1(CNC(=O)C2CCN(C(=O)c3cc(-c4cc(OC)ncc4Cl)[nH]n3)CC2)COC1 [1-[5-(5-chloro-2-methoxypyridin-4-yl)-1H-pyrazole-3-carbonyl]-N-[(3-ethyloxetane-3-yl)methyl]piperidine-4-carboxamide] | > 1
9 | COc1cc(-c2cc(C(=O)N3CCC(C(=O)NCC4(F)COC4)CC3)n[nH]2)c(Cl)cn1 [1-[5-(5-chloro-2-methoxypyridin-4-yl)-1H-pyrazole-3-carbonyl]-N-[(3-fluorooxetan-3-yl)methyl]piperidine-4-carboxamide] | > 1
10 | COc1cc(-c2cc(C(=O)N3CCC(C(=O)NCC4(C)COC4)CC3)n[nH]2)c(Cl)cn1 [1-[5-(5-chloro-2-methoxypyridin-4-yl)-1H-pyrazole-3-carbonyl]-N-[(3-methyloxetan-3-yl)methyl]piperidine-4-carboxamide] | > 1
11 | COc1cc(-c2cc(C(=O)N3CCC(C(=O)NCC4(C)CCOC4)CC3)n[nH]2)c(Cl)cn1 (stereo not drawn) [1-[5-(5-chloro-2-methoxypyridin-4-yl)-1H-pyrazole-3-carbonyl]-N-[(3-methyloxolan-3-yl)methyl]piperidine-4-carboxamide] | > 1
12 | COc1cc(-c2cc(C(=O)N3CCC(C(=O)NCC4CC(F)(F)C(=O)N4)CC3)n[nH]2)c(Cl)cn1 (stereo not drawn) [1-[5-(5-chloro-2-methoxypyridin-4-yl)-1H-pyrazole-3-carbonyl]-N-[(4,4-difluoro-5-oxopyrrolidin-2-yl)methyl]piperidine-4-carboxamide] | > 1
13 | COc1cc(-c2cc(C(=O)N3CCC(C(=O)NCc4nc(C)c(C)s4)CC3)n[nH]2)c(Cl)cn1 [1-[5-(5-chloro-2-methoxypyridin-4-yl)-1H-pyrazole-3-carbonyl]-N-[(4,5-dimethyl-1,3-thiazol-2-yl)methyl]piperidine-4-carboxamide] | > 1

The remaining lines, values ahead:

Row | AC50 [µM] | Structure (SMILES)
14 | > 1 | COc1cc(-c2cc(C(=O)N3CCC(C(=O)NCc4c(C)cc(C)[nH]c4=O)CC3)n[nH]2)c(Cl)cn1 [1-[5-(5-chloro-2-methoxypyridin-4-yl)-1H-pyrazole-3-carbonyl]-N-[(4,6-dimethyl-2-oxo-1,2-dihydropyridin-3-yl)methyl]piperidine-4-carboxamide]
15 | > 1 | COc1cc(-c2cc(C(=O)N3CCC(C(=O)NCc4cc(Cl)ccn4)CC3)n[nH]2)c(Cl)cn1 [1-[5-(5-chloro-2-methoxypyridin-4-yl)-1H-pyrazole-3-carbonyl]-N-[(4-chloropyridin-2-yl)methyl]piperidine-4-carboxamide]
16 | > 1 | COc1cc(-c2cc(C(=O)N3CCC(C(=O)NCc4cc(C#N)ccn4)CC3)n[nH]2)c(Cl)cn1 [1-[5-(5-chloro-2-methoxypyridin-4-yl)-1H-pyrazole-3-carbonyl]-N-[(4-cyanopyridin-2-yl)methyl]piperidine-4-carboxamide]
17 | > 1 | COc1cc(-c2cc(C(=O)N3CCC(C(=O)NCc4cc(F)ccn4)CC3)n[nH]2)c(Cl)cn1 [1-[5-(5-chloro-2-methoxypyridin-4-yl)-1H-pyrazole-3-carbonyl]-N-[(4-fluoropyridin-2-yl)methyl]piperidine-4-carboxamide]
18 | > 1 | COc1cc(-c2cc(C(=O)N3CCC(C(=O)NCC4(O)CCOCC4)CC3)n[nH]2)c(Cl)cn1 [1-[5-(5-chloro-2-methoxypyridin-4-yl)-1H-pyrazole-3-carbonyl]-N-[(4-hydroxyoxan-4-yl)methyl]piperidine-4-carboxamide]
19 | > 1 | COc1cc(-c2cc(C(=O)N3CCC(C(=O)NCC4CN(C)CCO4)CC3)n[nH]2)c(Cl)cn1 (stereo not drawn) [1-[5-(5-chloro-2-methoxypyridin-4-yl)-1H-pyrazole-3-carbonyl]-N-[(4-methylmorpholin-2-yl)methyl]piperidine-4-carboxamide]
20 | > 1 | COc1cc(-c2cc(C(=O)N3CCC(C(=O)NCc4cc(C)ccn4)CC3)n[nH]2)c(Cl)cn1 [1-[5-(5-chloro-2-methoxypyridin-4-yl)-1H-pyrazole-3-carbonyl]-N-[(4-methylpyridine-2-yl)methyl]piperidine-4-carboxamide]
21 | > 1 | COc1cc(-c2cc(C(=O)N3CCC(C(=O)NCc4n[nH]c(=O)c5ccccc45)CC3)n[nH]2)c(Cl)cn1 [1-[5-(5-chloro-2-methoxypyridin-4-yl)-1H-pyrazole-3-carbonyl]-N-[(4-oxo-3,4-dihydrophthalazin-1-yl)methyl]piperidine-4-carboxamide]
22 | > 1 | COc1cc(-c2cc(C(=O)N3CCC(C(=O)N[C@@H]4CCOc5c(F)ccc(F)c54)CC3)n[nH]2)c(Cl)cn1 [1-[5-(5-chloro-2-methoxypyridin-4-yl)-1H-pyrazole-3-carbonyl]-N-[(4R)-5,8-difluoro-3,4-dihydro-2H-1-benzopyran-4-yl]piperidine-4-carboxamide]
23 | > 1 | COc1cc(-c2cc(C(=O)N3CCC(C(=O)NCc4noc(C)n4)CC3)n[nH]2)c(Cl)cn1 [1-[5-(5-chloro-2-methoxypyridin-4-yl)-1H-pyrazole-3-carbonyl]-N-[(5-methyl-1,2,4-oxadiazol-3-yl)methyl]piperidine-4-carboxamide]
24 | > 1 | COc1cc(-c2cc(C(=O)N3CCC(C(=O)NCc4cc(C)on4)CC3)n[nH]2)c(Cl)cn1 [1-[5-(5-chloro-2-methoxypyridin-4-yl)-1H-pyrazole-3-carbonyl]-N-[(5-methyl-1,2-oxazol-3-yl)methyl]piperidine-4-carboxamide]
25 | > 1 | COc1cc(-c2cc(C(=O)N3CCC(C(=O)NCc4cnc(C)cn4)CC3)n[nH]2)c(Cl)cn1 [1-[5-(5-chloro-2-methoxypyridin-4-yl)-1H-pyrazole-3-carbonyl]-N-[(5-methylpyrazin-2-yl)methyl]piperidine-4-carboxamide]
26 | > 1 | COc1cc(-c2cc(C(=O)N3CCC(C(=O)NCc4ccc(C#N)nc4)CC3)n[nH]2)c(Cl)cn1 [1-[5-(5-chloro-2-methoxypyridin-4-yl)-1H-pyrazole-3-carbonyl]-N-[(6-cyanopyridin-3-yl)methyl]piperidine-4-carboxamide]
27 | > 1 | COc1ccc(CNC(=O)C2CCN(C(=O)c3cc(-c4cc(OC)ncc4Cl)[nH]n3)CC2)cn1 [1-[5-(5-chloro-2-methoxypyridin-4-yl)-1H-pyrazole-3-carbonyl]-N-[(6-methoxypyridin-3-yl)methyl]piperidine-4-carboxamide]
28 | > 1 | COc1cc(-c2cc(C(=O)N3CCC(C(=O)NCc4cccc(C)n4)CC3)n[nH]2)c(Cl)cn1 [1-[5-(5-chloro-2-methoxypyridin-4-yl)-1H-pyrazole-3-carbonyl]-N-[(6-methylpyridin-2-yl)methyl]piperidine-4-carboxamide]
29 | > 1 | COc1cc(-c2cc(C(=O)N3CCC(C(=O)NCc4ccc(C)nc4)CC3)n[nH]2)c(Cl)cn1 [1-[5-(5-chloro-2-methoxypyridin-4-yl)-1H-pyrazole-3-carbonyl]-N-[(6-methylpyridin-3-yl)methyl]piperidine-4-carboxamide]
30 | > 1 | COc1cc(-c2cc(C(=O)N3CCC(C(=O)NCc4cccc(=O)[nH]4)CC3)n[nH]2)c(Cl)cn1 [1-[5-(5-chloro-2-methoxypyridin-4-yl)-1H-pyrazole-3-carbonyl]-N-[(6-oxo-1,6-dihydropyridin-2-yl)methyl]piperidine-4-carboxamide]
